Where two headings read alike, the source gives them in different places.
How the values were obtained:
[1] = target: T1, P-gp (Homo sapiens, UniProt P08183); test: cell-based
Excerpt: (§1) • A. Three different cell lines have been employed: MDCK-P-gp (fluorescent probe Calcein-AM), MDCK-BCRP (florescent probe Rhodamine) and MDCK-MRP1 (fluorescent probe Calcein-AM). These cells overexpress stably human P-gp or BCRP or MRP1. • i.

[2] = target: T2, BCRP (Homo sapiens, UniProt Q9UNQ0); test: Activity in MDCK-BCRP cells, fluorescent probe Rhodamine; type: cell-based
T2 construct: expressed in transfected cells; host or cells: MDCK-BCRP
T2 sequence (Q9UNQ0 1-655): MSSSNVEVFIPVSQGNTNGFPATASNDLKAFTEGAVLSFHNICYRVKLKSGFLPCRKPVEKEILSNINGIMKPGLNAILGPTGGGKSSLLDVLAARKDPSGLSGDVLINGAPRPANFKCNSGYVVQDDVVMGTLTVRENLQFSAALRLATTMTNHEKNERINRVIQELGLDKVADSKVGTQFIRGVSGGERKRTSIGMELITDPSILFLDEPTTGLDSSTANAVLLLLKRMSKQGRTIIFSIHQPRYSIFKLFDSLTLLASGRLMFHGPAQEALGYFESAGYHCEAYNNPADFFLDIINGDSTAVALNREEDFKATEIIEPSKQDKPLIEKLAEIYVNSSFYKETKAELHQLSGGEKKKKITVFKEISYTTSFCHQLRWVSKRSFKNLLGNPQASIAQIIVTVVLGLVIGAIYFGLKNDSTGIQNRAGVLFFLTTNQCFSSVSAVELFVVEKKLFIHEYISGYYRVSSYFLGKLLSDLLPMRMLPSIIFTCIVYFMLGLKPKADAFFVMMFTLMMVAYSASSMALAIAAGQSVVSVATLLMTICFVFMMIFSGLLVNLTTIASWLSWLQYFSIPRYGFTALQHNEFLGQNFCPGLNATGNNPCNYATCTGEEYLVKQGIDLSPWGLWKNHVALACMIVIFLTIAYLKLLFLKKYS
Excerpt: as §1

[3] = target: T3, MRP1 (Homo sapiens, UniProt P33527); test: Activity in MDCK-MRP1 cells, fluorescent probe Calcein-AM; type: cell-based
T3 construct: expressed in transfected cells; host or cells: MDCK-MRP1
T3 sequence (P33527 whole entry): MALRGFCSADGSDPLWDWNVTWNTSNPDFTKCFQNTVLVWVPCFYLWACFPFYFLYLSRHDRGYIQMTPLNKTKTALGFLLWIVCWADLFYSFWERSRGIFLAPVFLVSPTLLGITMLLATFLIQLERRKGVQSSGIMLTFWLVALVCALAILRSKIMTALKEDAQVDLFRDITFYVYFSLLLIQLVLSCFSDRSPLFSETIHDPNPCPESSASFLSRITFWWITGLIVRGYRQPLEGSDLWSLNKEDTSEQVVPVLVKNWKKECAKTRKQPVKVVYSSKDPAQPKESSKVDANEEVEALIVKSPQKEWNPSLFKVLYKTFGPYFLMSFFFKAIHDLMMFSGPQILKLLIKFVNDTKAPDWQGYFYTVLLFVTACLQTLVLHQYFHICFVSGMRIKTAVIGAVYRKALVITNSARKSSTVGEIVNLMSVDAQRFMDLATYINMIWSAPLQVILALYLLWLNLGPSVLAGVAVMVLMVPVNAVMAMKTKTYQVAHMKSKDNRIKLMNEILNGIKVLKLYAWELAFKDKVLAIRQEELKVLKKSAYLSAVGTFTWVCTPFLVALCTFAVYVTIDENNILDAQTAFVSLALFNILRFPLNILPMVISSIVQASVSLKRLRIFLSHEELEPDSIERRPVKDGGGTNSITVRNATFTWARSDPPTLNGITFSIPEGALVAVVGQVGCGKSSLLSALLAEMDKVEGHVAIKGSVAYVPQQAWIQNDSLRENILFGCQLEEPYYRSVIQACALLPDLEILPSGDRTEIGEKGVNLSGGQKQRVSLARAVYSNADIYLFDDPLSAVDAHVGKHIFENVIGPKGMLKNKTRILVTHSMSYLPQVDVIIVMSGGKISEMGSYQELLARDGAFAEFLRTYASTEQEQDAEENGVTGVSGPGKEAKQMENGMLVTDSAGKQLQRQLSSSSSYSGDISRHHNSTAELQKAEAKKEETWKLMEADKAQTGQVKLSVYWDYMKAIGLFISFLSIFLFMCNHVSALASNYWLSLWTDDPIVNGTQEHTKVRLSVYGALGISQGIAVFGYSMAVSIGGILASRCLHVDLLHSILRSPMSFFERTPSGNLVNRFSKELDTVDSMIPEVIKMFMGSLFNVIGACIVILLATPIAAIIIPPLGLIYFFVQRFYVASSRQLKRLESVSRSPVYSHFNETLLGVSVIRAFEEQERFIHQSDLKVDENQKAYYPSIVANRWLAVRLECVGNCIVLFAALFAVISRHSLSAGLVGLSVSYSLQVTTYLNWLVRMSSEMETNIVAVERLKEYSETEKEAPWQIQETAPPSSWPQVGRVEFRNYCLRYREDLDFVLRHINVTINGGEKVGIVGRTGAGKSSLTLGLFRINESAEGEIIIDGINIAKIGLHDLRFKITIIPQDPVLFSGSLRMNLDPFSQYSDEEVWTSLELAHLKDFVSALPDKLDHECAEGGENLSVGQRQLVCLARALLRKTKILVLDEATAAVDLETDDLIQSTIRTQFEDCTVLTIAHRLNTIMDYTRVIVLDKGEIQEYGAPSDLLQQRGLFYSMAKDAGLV
Excerpt: as §1

[4] = tested on: P-gp; test: Apparent permeability in Caco-2 cells (BA/AB); type: in vitro ADME; settings: human, BA/AB >2 = transported by P-gp, read-out: Apparent Permeability (B→A/A→B)
Experimental: Ligands displaying BA/AB >2 are transported while ligands having BA/AB <2 are not transported by P-gp.
Caco-2 cells were seeded onto a Millicell assay system (Millipore), where a cell monolayer is set in between a filter cell and a receiver plate, at a density of 10,000 cells/well. The culture medium was replaced every 48 h and the cells kept for 21 days in culture. The Trans Epithelial Electrical Resistance (TEER) of the monolayers was measured daily, before and after the experiment, using an epithelial voltohometer (Millicell-ERS). Generally, TEER values greater than 1000× for a 21 day culture, are considered optimal. Caco-2 cells were seeded onto a Millicell assay system (Millipore), where a cell monolayer is set in between a filter cell and a receiver plate, at a density of 10,000 cells/well. The culture medium was replaced every 48 h and the cells kept for 21 days in culture. The Trans Epithelial Electrical Resistance (TEER) of the monolayers was measured daily, before and after the experiment, using an epithelial voltohometer (Millicell-ERS). Generally, TEER values greater than 1000× for a 21 day culture, are considered. After 21 days of Caco-2 cell growth, the medium was removed from filter wells and from the receiver plate, which were filled with fresh MSS buffer (Invitrogen). […] The apparent permeability (Papp), in units of nm/s, was calculated.

[5] = Protein Plasma Binding (PPB) assay (TRANSIL); type: in vitro ADME, human; settings: human serum albumin and human α1 acid glycoprotein (TRANSIL); for fraction unbound: estimation based on human serum albumin and human α1 acid glycoprotein, read-out: fb (fraction bound to plasma proteins) (converted); for Kd: human, read-out: kD (dissociation constant, plasma protein binding)
Experimental: (§2) Plasma protein binding is measured in terms of the dissociation constant KD: KD=[compound 1a] [P]/[compound 1a-P], wherein [compound 1a-P] is the concentration of compound of Formula 1a bound to the protein P and where [compound 1a] denotes the free concentration of compound of Formula 1a and [P] denotes the free concentration of protein. […] This means there is high free unbound radiotracer available to bind with the target protein for detection.
(§3) fb represents an estimation of the fraction bound to plasma proteins based on human serum albumin and human α1 acid glycoprotein. Binding to other low abundance plasma proteins like lipoproteins, transcortin, and sex hormone binding protein is not considered.
(§4) The TRANSIL Quality Index (TQI) is based on five independent measures derived from the data analysis. For each individual measure a partial quality score on a scale between 0 and 10 is attributed to the estimate. 0 represents lowest quality, while 10 represents highest quality. The final quality index is a weighted average of the partial quality scores.
(§5) Plasma protein binding is measured in terms of the dissociation constant KD: KD=[TQD]

[6] = tested on: plasma proteins based on human serum albumin and human α1 acid glycoprotein; test: Protein Plasma Binding (PPB) assay (TRANSIL); type: in vitro ADME; settings: read-out: kD (dissociation constant, plasma protein binding)
Experimental: as §2, §3, §4, §5

[7] = Metabolic stability by rat liver microsomes; type: in vitro ADME
Experimental: Metabolic stability of compound of Formula la was evaluated by incubating test compounds with rat liver microsomes and monitoring parent disappearance within 30 mins using HPLC.
• Column: KINE IEX-C18 • Column temperature: 40° C. • Mobile phase: Gradient. A was 0.1% formic acid in water. B was MeCN. A:B 95:5 to 30:70 over 10 min, to 20:80 over 5 min. • Flow rate: 0.5 ml/min • Injection volume: 50 μL
FIG. 5 illustrated a Chromatogram of Formula la incubated with microsomes fraction only without NADPH regenerating system wherein 489.88 mAU*s represents ligand concentration after incubation Ccontrol. FIG. 6 illustrates a Chromatogram of compound of Formula 1a incubated in the presence of microsomes and NADPH regenerating system wherein 429.56 mAU*s represents ligand concentration Cparent.

[8] = Metabolites (human microsomes), unchanged form; type: in vitro ADME
Excerpt: Metabolites (Human Microsomes)

[9] = tested on: MDCK-MDR1; test: Cytotoxicity, MTT assay; type: cell-based; settings: 100 microM
Experimental: Determination of cell growth was performed using the MTT assay at 24 and 48 h. On day 1, 30,000 cells/well were seeded into96-well plates in a volume of 100 μL. On day 2, the various drugs concentration (0.1-100 μM) were added. In all the experiments, the various drug-solvents (ethanol, DMSO) were added in each control to evaluate a possible solvent cytotoxicity. After the established incubation time with compound of Formula 1a, MTT(0.5 mg/mL) was added to each well, and after 3 h incubation at 37° C., the supernatant was removed.

[10] = Everted gut sac: crossing to mucosal compartment and stability; type: in vitro ADME
Experimental: The compound of Formula la has been inserted in serosal compartment of […] and for 120 mins has been tested: • 1. The concentration in mucosal compartment • 2. The stability in serosal/mucosal compartment

[11] = target: T1, P-gp; test: ATP-ase cell depletion (luminescence) in MDCK-MDR1 cells; type: cell-based; design: expressed in transfected cells; host or cells: MDCK-P-gp (MDCK cells stably overexpressing human P-gp); settings: at 1 μM, 2 h
Experimental: In order to establish the intrinsic mechanism of compound of Formula la in […] has been defined if it was able to deplete ATP. Compound able to deplete ATP can be considered P-gp substrate while ligand unable to deplete ATP is considered P-gp inhibitor.
The MDCK-MDR1 cells were seeded into 96-well microplate in 100 μL of complete medium at a density 2×10^4 cells/well. The plate was incubated overnight in a humidified atmosphere 5% CO2 at 37° C. The medium was removed and 100 μL of complete medium in the presence or absence of different concentrations of compound of Formula 1a was added. The plate was incubated for 2 h in a humidified atmosphere 5% CO2 at 37° C. Fifty microlitres of mammalian cell lysis solution was added to all wells and the plate was shaken for 5 min in an orbital shaker. Fifty microlitres of substrate solution was added to all wells and the plate was shaken for 5 min in an orbital shaker. The plate was dark adapted for 10 min and the luminescence was measured.

[12] = tested on: P-gp; test: In vivo bio-distribution, microPET/CT brain uptake; design: species or system mice
Experimental: A set of wild type mice subjects were injected with compound of formula 1b (i.e. [^18F]-labeled compound of formula 1a). Immediately after injection of the tracer compound, scanning was performed on the subject using a microPET/CT system. The study was conducted in deep anaesthesia (oxygen/1.5-2 isoflurane w/o drug-induction) and the animals were treated by adhering to regulatory, ethical and Animal Welfare guidelines subsequent to obtaining approvals. […] The extraction remained constant for the duration of the study and was indicative of a possible selective binding to brain structures.

[13] = target: T1, P-gp; design: expressed in transfected cells; host or cells: MDCK-P-gp (MDCK cells stably overexpressing human P-gp); settings: literature value; read-out: EC50 as reported in Kazunori Kawamura, et al.; cited from earlier work

T1 sequence (P08183 whole entry): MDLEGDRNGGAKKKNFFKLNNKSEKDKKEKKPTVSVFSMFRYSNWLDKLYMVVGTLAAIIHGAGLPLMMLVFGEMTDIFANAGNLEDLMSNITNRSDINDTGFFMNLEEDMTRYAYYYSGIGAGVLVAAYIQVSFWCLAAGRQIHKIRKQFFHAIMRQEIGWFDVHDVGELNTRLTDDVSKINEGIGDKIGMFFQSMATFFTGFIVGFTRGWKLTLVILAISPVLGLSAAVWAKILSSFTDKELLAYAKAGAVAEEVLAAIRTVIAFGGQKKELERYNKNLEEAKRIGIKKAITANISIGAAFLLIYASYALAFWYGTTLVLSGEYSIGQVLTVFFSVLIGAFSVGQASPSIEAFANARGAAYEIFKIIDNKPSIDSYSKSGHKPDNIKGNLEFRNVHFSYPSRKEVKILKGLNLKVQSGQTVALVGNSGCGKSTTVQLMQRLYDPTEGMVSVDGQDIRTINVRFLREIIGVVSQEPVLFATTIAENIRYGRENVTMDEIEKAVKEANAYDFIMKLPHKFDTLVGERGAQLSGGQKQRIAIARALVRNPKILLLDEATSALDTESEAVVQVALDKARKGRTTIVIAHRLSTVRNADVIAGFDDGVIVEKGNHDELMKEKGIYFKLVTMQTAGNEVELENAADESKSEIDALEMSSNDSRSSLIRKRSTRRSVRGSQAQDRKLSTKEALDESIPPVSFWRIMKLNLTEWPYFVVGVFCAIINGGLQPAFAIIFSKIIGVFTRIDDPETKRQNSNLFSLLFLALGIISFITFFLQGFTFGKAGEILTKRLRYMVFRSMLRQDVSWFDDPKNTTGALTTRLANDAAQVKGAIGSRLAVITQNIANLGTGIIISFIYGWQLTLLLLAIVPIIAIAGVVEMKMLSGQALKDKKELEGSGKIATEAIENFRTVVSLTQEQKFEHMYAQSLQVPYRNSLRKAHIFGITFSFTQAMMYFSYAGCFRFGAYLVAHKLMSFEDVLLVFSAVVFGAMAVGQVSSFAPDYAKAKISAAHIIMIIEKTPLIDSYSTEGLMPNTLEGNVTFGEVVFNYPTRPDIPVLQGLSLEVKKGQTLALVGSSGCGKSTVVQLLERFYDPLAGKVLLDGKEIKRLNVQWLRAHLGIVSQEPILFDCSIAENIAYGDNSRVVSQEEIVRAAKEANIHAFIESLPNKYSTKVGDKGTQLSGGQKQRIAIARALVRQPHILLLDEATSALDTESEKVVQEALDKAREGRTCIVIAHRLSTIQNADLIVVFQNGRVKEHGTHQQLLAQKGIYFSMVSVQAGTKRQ

Compound | P-gp EC50 [1] | EC50 [2] [nM] | EC50 [3] [nM] | fraction unbound [5] | Kd [5] [nM] | Cytotoxicity (MTT) ([9]; 24 h) [%] | Cytotoxicity (MTT) ([9]; 48 h) [%] | ATP-ase cell depletion [11] [%] | other results
COc1cc(NC(=O)c2cnc3ccccc3c2)c(C(=O)Nc2ccc(CCN3CCc4cc(OCCF)c(OC)cc4C3)cc2)cc1OC [Formula 1a, N-(2-((4-(2-(6-(2-fluoroethoxy)-7-methoxy-3,4-dihydroisoquinolin-2(1H)-yl)ethyl)phenyl)carbamoyl)-4,5-dimethoxyphenyl)quinoline-3-carboxamide] | 8,0±0.2 nM | > 500 | > 500 | 0.539 | 717000 | 5 | 15 | 20 | EC50 [1]: 8 nM; efflux ratio at 120 min [4]: 16 ± 0.7; Kd [6]: 717000 nM; % remaining at 30 min [7]: 88%; Unchanged form (%) ([8]; after 30 min): 91%; Unchanged form (%) ([8]; after 60 min): 85%; Stability in serosal compartment ([10]; after 60 min): 83%; Stability in serosal compartment ([10]; after 120 min): 75%; Crossing into the mucosal compartment ([10]; inserted in serosal compartment, 120 mins): unable to cross into the mucosal compartment
COc1cc(NC(=O)c2cnc3ccccc3c2)c(C(=O)Nc2ccc(CCN3CCc4cc(OCC[18F])c(OC)cc4C3)cc2)cc1OC [Formula 1b] | – | – | – | – | – | – | – | – | Brain uptake (microPET) ([12]; P-gp knock-out mice (MDR 1a/b −/−)): same reduction of uptake at brain level; Brain uptake (microPET) ([12]; wild type mice, co-injection of tariquidar): strongly reduced; Brain uptake (microPET) ([12]; wild type mice, tracer alone): binding of radiolabeled compound of formula 1b at brain level
COc1cc2c(cc1OC)CN(CCc1ccc(NC(=O)c3cc(OC)c(OC)cc3NC(=O)c3cnc4ccccc4c3)cc1)CC2 [Tariquidar, reference compound] | 4,0±0.2 nM | > 80 | > 500 | 0.095 | 64700 | 8 | 19 | 30 | EC50 [13]: 24 nM

— patent US10561748B2, “Anthranilic acid derivatives” (priority 2014, dated 2020)
